The source of these data is patent publication US7799775B2, “Pyrimidine derivatives” (ASKA Pharmaceutical Co., Ltd., priority 2004, dated 2010).

For one assay, the target named is T1, human 5-HT3 receptor (Homo sapiens, UniProt P46098).
T1 construct: purchased BIOLINKS K.K; host or cells: HEK-293 cells (membrane preparation)
T1 sequence (P46098 24-478): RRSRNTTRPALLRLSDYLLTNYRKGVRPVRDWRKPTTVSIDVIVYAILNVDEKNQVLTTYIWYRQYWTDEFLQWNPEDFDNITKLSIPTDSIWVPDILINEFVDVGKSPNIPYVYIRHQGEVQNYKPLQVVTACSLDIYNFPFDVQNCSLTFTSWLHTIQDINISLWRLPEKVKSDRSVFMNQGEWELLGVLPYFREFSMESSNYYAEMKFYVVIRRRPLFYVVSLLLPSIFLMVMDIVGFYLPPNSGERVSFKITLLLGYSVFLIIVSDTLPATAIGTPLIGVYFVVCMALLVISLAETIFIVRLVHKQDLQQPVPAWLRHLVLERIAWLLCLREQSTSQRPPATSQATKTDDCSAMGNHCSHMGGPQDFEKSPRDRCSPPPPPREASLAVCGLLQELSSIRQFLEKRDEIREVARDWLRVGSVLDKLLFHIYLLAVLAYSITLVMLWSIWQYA
Nature of the assay: Measurement of affinity to human 5-HT3 receptor (in vitro), [3H]BRL-43694 binding. The following applies: test compound 100 nmols/L; [3H]BRL-43694 0.5 nmols/L; HEK-293 cell membrane expressing human 5-HT3 receptor; read-out: Percent Inhibition (%) on Each Receptor's Binding at 10^−7M, 5-HT3. The protocol: (2) Measurement of Affinity of Each Test Compound to Human 5-HT3 Receptor (in Vitro):
HEK-293 cell membrane sample in which human 5-HT3 receptor was expressed (purchased from BIOLINKS K.K.) 0.05 mL (about 50 microassay) was added to 24.95 mL of incubation buffer solution B (an aqueous solution of a mixture of 50 mmols/L of Tris-hydrochloric acid, 5 mmols/L of magnesium chloride and 1 mmol/L of EDTA, whose pH was adjusted to 7.5 at 25° C. with 1N-aqueous sodium hydroxide solution) and homogenized, to provide a membrane sample suspension B. Separately, each test compound was made into 270 μmols/L of DMSO solution and diluted to a prescribed concentration with the incubation buffer solution B to provide a compound solution.
A piece of polypropylene tube was charged with 20 μL of [^3H]BRL-43694 (purchased from Daiichi Pure Chemicals Co., Ltd.) (The concentration of [^3H]BRL-43694 had been advancedly adjusted to render its concentration in the reaction mixture to 0.5 nmols/L.) and 20 μL of one of the compound solutions. Further 500 μL of the membrane sample suspension B was added into the tube, followed by 60 minutes' incubation at 25° C. The reaction was terminated by rapid filtration of the reaction mixture through GF/B filter which had been advancedly immersed in a solution formed by adding to the incubation buffer solution B polyethyleneimine to a concentration of 0.5%, using Brandel cell harvester. Then the filter was washed with about 5 mL of 50 mmols/L of Tris-hydrochloric acid which had been cooled to 4° C. The filter was once again washed after similar operation.
Residual radioactivity on the filter was measured with liquid scintillation counter (ALOKA CO., LTD. LSC-5100). Percent inhibition (%) of each test compound to binding of [^3H]BRL-43694 to 5-HT3 receptor at a concentration of 0.5 nmols/L, i.e., affinity of each test compound to 5-HT3 receptor, can be calculated according to the following expression. The ratio of non-specific binding was calculated by measuring the radioactivity in case of using tropisetron: (ICS 205-930) at a concentration of 10 μmols/L, with which value the measured value of each test compound was compensated.
(§1) Affinity of each test compound to 5-HT1A receptor and 5-HT3 receptor at a concentration of 100 nmols/L were as shown in the following Tables A-1 and A-2. BRL-43694 and tropisetron (ICS 205-930), which were used in measuring affinity of those compounds to 5-HT3 receptor, have the following structures: […]

The target in a further assay is T2, human 5-HT1A receptor (Homo sapiens, UniProt P08908).
T2 construct: purchased Packard Bioscience; host or cells: CHO cells (membrane preparation)
T2 sequence (P08908 1-422): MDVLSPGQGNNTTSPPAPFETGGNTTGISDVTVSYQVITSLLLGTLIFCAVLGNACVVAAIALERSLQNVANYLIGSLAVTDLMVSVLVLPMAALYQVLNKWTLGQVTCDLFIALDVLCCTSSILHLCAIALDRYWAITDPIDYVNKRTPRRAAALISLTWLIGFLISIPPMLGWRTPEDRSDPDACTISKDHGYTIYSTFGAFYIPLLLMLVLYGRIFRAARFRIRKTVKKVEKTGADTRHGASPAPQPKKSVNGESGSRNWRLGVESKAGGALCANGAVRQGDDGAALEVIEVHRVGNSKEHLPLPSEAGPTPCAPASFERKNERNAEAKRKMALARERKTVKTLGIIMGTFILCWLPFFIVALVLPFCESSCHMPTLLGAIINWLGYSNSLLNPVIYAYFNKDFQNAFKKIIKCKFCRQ
Nature of the assay: Affinity measurement of the compounds to human 5-HT1A receptor (in vitro), [3H]8-OH-DPAT binding. The following applies: test compound 100 nmols/L; [3H]8-OH-DPAT 0.25 nmols/L; CHO cell membrane expressing human 5-HT1A receptor; read-out: Percent Inhibition (%) on Each Receptor's Binding at 10^−7M, 5-HT1A. The method, then: (1) Affinity Measurement of the Compounds to Human 5-HT1A Receptor (in Vitro)
CHO cell membrane sample in which human 5-HT1A receptor was expressed (purchased from Packard Bioscience) 0.25 mL (about 50 units) was added to 24.75 mL of incubation buffer solution A (an aqueous solution of a mixture of 50 mmols/L of Tris-hydrochloric acid, 10 mmols/L of magnesium sulfate, 0.5 mmols/L of EDTA and 0.1% ascorbic acid, whose pH was adjusted to 7.4 at 27° C. with 1N-aqueous sodium hydroxide solution), and labeled as membrane sample suspension A. Separately, each test compound was made into 270 μmols/L DMSO solution and diluted to a prescribed concentration with the incubation buffer solution A, to provide a compound solution.
A piece of polypropylene tube was charged with 20 μL of [^3H]8-OH-DPAT (8-hydroxy-2-(di-n-propylamino)tetralin; purchased from Daiichi Pure Chemicals Co., Ltd.) (The concentration of the [^3H]8-OH-DPAT had been advancedly adjusted to render its concentration in the reaction mixture to 0.25 nmols/L) and 20 μL of one of the compound solutions. Further 500 μL of the membrane sample suspension A was added into the tube, followed by 60 minutes' incubation at 27° C. The reaction was terminated by rapid filtration of the reaction mixture through GF/C filter which had been advancedly immersed in a solution formed by adding to the incubation buffer solution A polyethyleneimine to a concentration of 0.3%, using Brandel cell harvester. Then the filter was washed with about 5 mL of 50 mmols/L of Tris-hydrochloric acid which had been cooled to 4° C. The filter was once again washed after similar operation.
Residual radioactivity on the filter was measured with liquid scintillation counter (Aloka Co., LSC-5100). Percent inhibition (%) of each test compound to binding of [^3H]8-OH-DPAT to 5-HT1A receptor at a concentration of 0.25 nmols/L, i.e., affinity of each test compound to 5-HT1A receptor, can be calculated according to the following expression. The ratio of non-specific binding was calculated by measuring the radioactivity in case of using 8-OH-DPAT at a concentration of 10 μmols/L, with which value the measured value of each test compound was compensated.
as §1

The inhibition is the percentage by which the read-out fell short of the control.

On to `Cc1cc(N2CCN(CCCCc3nc4c(c(=O)n3Cc3ccccc3)CCCC4)CC2)nc2ccccc12` [Example 7-8, 3-benzyl-2-[4-[4-(4-methylquinolin-2-yl)piperazin-1-yl]butyl]-5,6,7,8-tetrahydro-3H-quinazolin-4-one], for which the inhibition at 0.1 µM on human 5-HT3 receptor turned out to be 78.8%; at human 5-HT1A receptor, 93.4%.
Regarding `Cn1c(CCCCN2CCN(c3nc4ccccc4s3)CC2)nc2c(c1=O)CCCC2` [Example 7-9, 2-[4-(4-benzothiazol-2-ylpiperazin-1-yl)butyl]-3-methyl-5,6,7,8-tetrahydro-3H-quinazolin-4-one], the inhibition at 0.1 µM turned out to be 32% on human 5-HT3 receptor and 91% on human 5-HT1A receptor.
Regarding `CCn1c(CCCCN2CCN(c3nc4ccccc4s3)CC2)nc2c(c1=O)CCCC2` [Example 7-10, 2-[4-(4-benzothiazol-2-ylpiperazin-1-yl)butyl]-3-ethyl-5,6,7,8-tetrahydro-3H-quinazolin-4-one], the inhibition at 0.1 µM on human 5-HT3 receptor was found to be 7.1%; on human 5-HT1A receptor it was 16.1%.
For `O=c1c2c(nc(CCCCN3CCN(c4nc5ccccc5s4)CC3)n1Cc1ccccc1)CCCC2` [Example 7-11, 2-[4-(4-benzothiazol-2-ylpiperazin-1-yl)butyl]-3-benzyl-5,6,7,8-tetrahydro-3H-quinazolin-4-one], the inhibition at 0.1 µM on human 5-HT3 receptor was 24.7%; at human 5-HT1A receptor, 45%.
`CC1CCc2nc(CCCCN3CCN(c4ccc5ccccc5n4)CC3)n(C)c(=O)c2C1` (centres unmarked) [Example 7-12, 3,6-dimethyl-2-[4-(4-quinolin-2-ylpiperazin-1-yl)butyl]-5,6,7,8-tetrahydro-3H-quinazolin-4-one]: the inhibition at 0.1 µM on human 5-HT3 receptor was 93.2%; at human 5-HT1A receptor, 96%.
The corresponding values for `CCn1c(CCCCN2CCN(c3ccc4ccccc4n3)CC2)nc2c(c1=O)CC(C)CC2` (centres unmarked) [Example 7-13, 3-ethyl-6-methyl-2-[4-(4-quinolin-2-ylpiperazin-1-yl)butyl]-5,6,7,8-tetrahydro-3H-quinazolin-4-one] are 93.6% and 90.2%.
On to `CC(CCCc1nc2c(c(=O)n1C)CCCC2)N1CCN(c2ccc3ccccc3n2)CC1` (centres unmarked) [Example 7-14, 3-methyl-2-[4-(4-quinolin-2-ylpiperazin-1-yl)pentyl]-5,6,7,8-tetrahydro-3H-quinazolin-4-one], for which the inhibition at 0.1 µM was determined as 16.7% at human 5-HT3 receptor and 77.8% at human 5-HT1A receptor.
Take `CC(C)n1c(CCCCN2CCN(c3ccc4ccccc4n3)CC2)nc2ccccc2c1=O` [Example 7-15, 3-isopropyl-2-[4-(4-quinolin-2-ylpiperazin-1-yl)butyl]-3H-quinazolin-4-one]: the figures for the inhibition at 0.1 µM on human 5-HT3 receptor and on human 5-HT1A receptor were 35% and 62.1%, respectively.
The matching figures for `O=c1c2ccccc2nc(CCCCN2CCN(c3ccc4ccccc4n3)CC2)n1Cc1ccccc1` [Example 7-16, 3-benzyl-2-[4-(4-quinolin-2-ylpiperazin-1-yl)butyl]-3H-quinazolin-4-one]: 66.8% and 72.2%.
In the case of `COc1ccc(-n2c(CCCCN3CCN(c4ccc5ccccc5n4)CC3)nc3ccccc3c2=O)cc1` [Example 7-17, 3-(4-methoxyphenyl)-2-[4-(4-quinolin-2-ylpiperazin-1-yl)butyl]-3H-quinazolin-4-one], the figures for the inhibition at 0.1 µM at human 5-HT3 receptor and on human 5-HT1A receptor were 1.9% and 50.6%, respectively.
The matching figures for `Cn1c(CCCCN2CCN(c3ccc4ccccc4n3)CC2)nc2cccc(Cl)c2c1=O` [Example 7-18, 5-chloro-3-methyl-2-[4-(4-quinolin-2-ylpiperazin-1-yl)butyl]-3H-quinazolin-4-one]: 68.8% and 93.1%.
The matching figures for `Cn1c(CCCCN2CCN(c3ccc4ccccc4n3)CC2)nc2c(cnn2C)c1=O` [Example 7-19, 1,5-dimethyl-6-[4-(4-quinolin-2-ylpiperazin-1-yl)butyl]-1,5-dihydropyrazolo[3,4-d]pyrimidin-4-one]: 7.4% and 85%.
Regarding `CCn1c(CCCCN2CCN(c3ccc4ccccc4n3)CC2)nc2ccccc2c1=O` [Example 7-21, 3-2-[4-(4-quinolin-2-ylpiperazin-1-yl)butyl]-3H-quinazolin-4-one], the inhibition at 0.1 µM stood at 95% on human 5-HT3 receptor and 97.4% on human 5-HT1A receptor.
On to `COc1cc2nc(CCCCN3CCN(c4ccc5ccccc5n4)CC3)n(C)c(=O)c2cc1OC` [Example 7-22, 6,7-dimethoxy-3-methyl-2-[4-(4-quinolin-2-ylpiperazin-1-yl)butyl]-3H-quinazolin-4-one], for which the figures for the inhibition at 0.1 µM on human 5-HT3 receptor and at human 5-HT1A receptor were 5.3% and 82.4%, respectively.
The matching figures for `Cc1sc2nc(CCCCN3CCN(c4ccc5ccccc5n4)CC3)n(C)c(=O)c2c1C` [Example 7-23, 3,5,6-trimethyl-2-[4-(4-quinolin-2-ylpiperazin-1-yl)butyl]-3H-thieno[2,3-d]pyrimidin-4-one]: 74.8% and 77%.
The matching figures for `Cc1ccc2c(=O)n(C)c(CCCCN3CCN(c4ccc5ccccc5n4)CC3)nc2c1` [Example 7-24, 3,7-dimethyl-2-[4-(4-quinolin-2-ylpiperazin-1-yl)butyl]-3H-quinazolin-4-one]: 30% and 78.3%.
